What was measured:
[1] = target: T1, Leukotriene A-4 hydrolase (Homo sapiens, UniProt P09960); assay: Inhibition of N-terminal (His)6 and Xpress-tagged LTA4H (unknown origin) expressed in Escherichia coli BL21(DE3) cells assessed as reduction in aminopeptidase activity by measuring p-nitroanilide release using L-Alanine-p-nitroanilide incubated for 10 mins by UV plate reader based assay
T1 sequence (P09960 whole entry): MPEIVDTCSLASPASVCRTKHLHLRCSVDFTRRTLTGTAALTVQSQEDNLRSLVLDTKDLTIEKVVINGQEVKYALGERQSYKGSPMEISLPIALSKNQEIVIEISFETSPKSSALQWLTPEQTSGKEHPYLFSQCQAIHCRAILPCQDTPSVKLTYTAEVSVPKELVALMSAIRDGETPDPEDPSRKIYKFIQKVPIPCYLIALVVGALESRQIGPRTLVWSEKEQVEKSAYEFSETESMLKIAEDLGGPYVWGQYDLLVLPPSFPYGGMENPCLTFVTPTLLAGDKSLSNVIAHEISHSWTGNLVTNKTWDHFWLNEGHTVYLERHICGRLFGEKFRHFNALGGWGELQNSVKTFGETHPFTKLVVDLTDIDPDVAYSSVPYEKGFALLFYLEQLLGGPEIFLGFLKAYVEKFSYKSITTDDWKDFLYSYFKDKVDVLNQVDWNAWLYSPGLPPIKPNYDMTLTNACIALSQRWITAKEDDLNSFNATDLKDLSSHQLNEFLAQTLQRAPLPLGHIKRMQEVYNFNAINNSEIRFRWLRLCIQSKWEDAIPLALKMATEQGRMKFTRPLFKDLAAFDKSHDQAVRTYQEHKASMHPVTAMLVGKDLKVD

[2] = target: T2, Leukotriene A-4 hydrolase (Homo sapiens) (UniProt P09960); assay: (§1) Activation of N-terminal (His)6 and Xpress-tagged LTA4H (unknown origin) expressed in Escherichia coli BL21(DE3) cells assessed as increase in aminopeptidase activity by measuring factor by which activator affects catalytic constant for hyperbolic mixed predominantly catalytic activation using L-Alanine-p-nitroanilide incubated for 10 mins by p-nitroanilide release detection based UV plate reader based assay
T2 sequence (whole entry): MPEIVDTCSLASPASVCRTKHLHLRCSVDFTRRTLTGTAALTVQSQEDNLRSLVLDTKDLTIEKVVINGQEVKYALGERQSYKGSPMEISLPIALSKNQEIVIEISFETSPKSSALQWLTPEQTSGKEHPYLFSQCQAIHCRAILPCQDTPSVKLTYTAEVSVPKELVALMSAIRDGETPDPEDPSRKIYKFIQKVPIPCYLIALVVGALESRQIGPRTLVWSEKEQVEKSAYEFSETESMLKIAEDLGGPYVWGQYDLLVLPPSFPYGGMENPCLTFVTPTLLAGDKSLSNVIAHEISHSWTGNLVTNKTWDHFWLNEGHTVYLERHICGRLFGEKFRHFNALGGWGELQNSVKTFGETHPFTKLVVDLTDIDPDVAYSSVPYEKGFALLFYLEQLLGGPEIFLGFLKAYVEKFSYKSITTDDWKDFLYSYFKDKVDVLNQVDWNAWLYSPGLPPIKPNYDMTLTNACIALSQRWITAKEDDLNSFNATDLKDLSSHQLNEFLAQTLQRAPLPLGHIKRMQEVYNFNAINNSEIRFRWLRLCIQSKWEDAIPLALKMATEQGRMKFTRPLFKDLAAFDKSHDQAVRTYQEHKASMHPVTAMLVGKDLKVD

[3] = target: T2, Leukotriene A-4 hydrolase (Homo sapiens); assay: as §1, with “reciprocal allosteric coupling” for “factor by which activator affects catalytic”
[4] = target: T1, Leukotriene A-4 hydrolase; assay: Activation of N-terminal (His)6 and Xpress-tagged LTA4H (unknown origin) expressed in Escherichia coli BL21(DE3) cells assessed as increase in aminopeptidase activity by measuring p-nitroanilide release using L-Alanine-p-nitroanilide incubated for 10 mins by UV plate reader based assay
[5] = target: T2, Leukotriene A-4 hydrolase (Homo sapiens); assay: as §1, with “dissociation” for “factor by which activator affects catalytic”, “constant (KX)” for “constant”

IC50 [1]	fold change (FC) [2]	K [3]	AC50 [4]	K [5]	SMILES
100 nM					COc1ccccc1Cc1ccc(-c2csc(N)n2)cc1
	21.4	9.51	1390 nM	9.6 µM	Nc1nc(-c2ccc(Cc3ccc(C(F)(F)F)cc3)cc2)cs1
			5920 nM		COc1cccc(Cc2ccc(-c3csc(N)n3)cc2)c1
